Measurements taken from patent US10238667B2, “Vitamin D receptor/SMAD genomic circuit gates fibrotic response” (Salk Institute for Biological Studies, priority 2013, dated 2019).

System: primary rat HSCs
Assay: Microarray expression profiling of TGFβ1 and TGFβ1+1,25(OH)2D3-treated HSCs
Format: cell-based
Details: 24 h
From the text: VDR Signaling Suppresses TGFβ-induced Pro-Fibrotic Genes. […] Euclidean clustering of both rows and columns using log2 transformed microarray expression data, n=2 per treatment group. […] Data represents the mean±SEM of at least three independent experiments performed in triplicate. Asterisks denote statistically significant differences (Student's unpaired t-test, *p<0.05, **p<0.01). HSCs were isolated from 10-week old male C57BL/6J mice and Wistar rats by in situ pronase, collagenase perfusion and single-step Histogenz gradient as previously reported (Hendriks et al., 1985; Knook et al., 1982). Isolated HSCs were cultured in DMEM (Mediatech) containing 20% FBS (Hyclone) on 6-well plates for 40 hours prior to end-point assays. Total RNA from primary rat or mouse HSCs was isolated using the RNeasy mini kit (Qiagen) according to standard protocols. RNA integrity and quality was assessed using the Agilent Bioanalyzer and prepared for hybridization to Illumina rat or mouse gene expression arrays according to standard Illumina protocols. Feature extraction was performed using the Illumina GenomeStudio software. Normalization and identification of differentially expressed genes from biological duplicates was performed using […] at http://sasquatch.ucsd.edu/vampire/.

[1] = TGFβ1 1 ng/ml ± 1,25(OH)2D3 100 nM

C=C1/C(=C\C=C2/CCC[C@]3(C)C([C@H](C)CCCC(C)(C)O)CC[C@@H]23)C[C@@H](O)C[C@@H]1O (stereo partly drawn) [1,25(OH)2D3, 1α,25 dihydroxyvitamin D3]
LOC499078 VitD + TGFbeta AVG signal (TGFβ1 1 ng/ml + 1,25(OH)2D3 100 nM, Control 3963.4, TGFβ 9788.1): 2325
Glipr1_predict VitD + TGFbeta AVG signal (TGFβ1 1 ng/ml + 1,25(OH)2D3 100 nM, Control 3986, TGFβ 9174): 1894
Sh3kbp1 VitD + TGFbeta AVG signal (TGFβ1 1 ng/ml + 1,25(OH)2D3 100 nM, Control 4057.3, TGFβ 7133.8): 1618
Ms4a7_predict VitD + TGFbeta AVG signal (TGFβ1 1 ng/ml + 1,25(OH)2D3 100 nM, Control 4402.2, TGFβ 10637): 1708
LOC310190 VitD + TGFbeta AVG signal (TGFβ1 1 ng/ml + 1,25(OH)2D3 100 nM, Control 4496.5, TGFβ 12465): 2594
Itgb2 VitD + TGF β Avg Signal (TGFβ1 1 ng/ml + 1,25(OH)2D3 100 nM, Control 4506.5, TGFβ 5580.6): 4858.4
Nucb2 VitD + TGFbeta AVG signal (TGFβ1 1 ng/ml + 1,25(OH)2D3 100 nM, Control 4712.3, TGFβ 10527): 2733
RT1-Ba VitD + TGFbeta AVG signal (TGFβ1 1 ng/ml + 1,25(OH)2D3 100 nM, Control 4721.8, TGFβ 13843): 3390
LOC312102 VitD + TGFbeta AVG signal (TGFβ1 1 ng/ml + 1,25(OH)2D3 100 nM, Control 5658, TGFβ 19362): 4469
Ptpro VitD + TGFbeta AVG signal (TGFβ1 1 ng/ml + 1,25(OH)2D3 100 nM, Control 5856.6, TGFβ 12798): 2551
Dcir3 VitD + TGFbeta AVG signal (TGFβ1 1 ng/ml + 1,25(OH)2D3 100 nM, Control 6230.8, TGFβ 11228): 1354
Oplah VitD + TGFbeta AVG signal (TGFβ1 1 ng/ml + 1,25(OH)2D3 100 nM, Control 6494.5, TGFβ 16466): 1922
Itgb1 VitD + TGF β Avg Signal (TGFβ1 1 ng/ml + 1,25(OH)2D3 100 nM, Control 8050.9, TGFβ 10104.2): 7987.9
Mmp14 VitD + TGF β Avg Signal (TGFβ1 1 ng/ml + 1,25(OH)2D3 100 nM, Control 8370.4, TGFβ 15560.3): 14980.5
Timp1 VitD + TGF β Avg Signal (TGFβ1 1 ng/ml + 1,25(OH)2D3 100 nM, Control 10124.0, TGFβ 13471.4): 9101.3
Ctgf VitD + TGF β Avg Signal (TGFβ1 1 ng/ml + 1,25(OH)2D3 100 nM, Control 10532.3, TGFβ 20216.0): 9730.1
Col1a2 VitD + TGF β Avg Signal (TGFβ1 1 ng/ml + 1,25(OH)2D3 100 nM, Control 10691.1, TGFβ 24123.0): 9593.3
Ms4a6b VitD + TGFbeta AVG signal (TGFβ1 1 ng/ml + 1,25(OH)2D3 100 nM, Control 12345, TGFβ 21779): 5158
Ctsc VitD + TGFbeta AVG signal (TGFβ1 1 ng/ml + 1,25(OH)2D3 100 nM, Control 16420, TGFβ 32328): 6319
Bmp2 TGFb/TGFB + VitD3 [1]: 5.3 NM_017178.1 Rattus norvegicus bone
Cacnb3 TGFb/TGFB + VitD3 [1]: 6.0 NM_012828.1 Rattus norvegicus calcium channel
Ccl12_predicte TGFb/TGFB + VitD3 [1]: 5.5 XM_213425.2 PREDICTED: Rattus norvegicus
Ccr5 TGFb/TGFB + VitD3 [1]: 12.9 NM_053960.2 Rattus norvegicus chemokine (C-
Cdh1 TGFb/TGFB + VitD3 [1]: 4.4 NM_031334.1 Rattus norvegicus cadherin 1
Chst1_predict TGFb/TGFB + VitD3 [1]: 12.7 XM_575178.1 PREDICTED: Rattus norvegicus
Ctsc TGFb/TGFB + VitD3 [1]: 5.1 NM_017097.1 Rattus norvegicus cathepsin C
Cysltr1 TGFb/TGFB + VitD3 [1]: 4.4 NM_053641.1 Rattus norvegicus cysteinyl
Dcir2 TGFb/TGFB + VitD3 [1]: 4.6 XM_579146.1 PREDICTED: Rattus norvegicus
Dcir3 TGFb/TGFB + VitD3 [1]: 8.3 XM_579150.1 PREDICTED: Rattus norvegicus
Dsipi TGFb/TGFB + VitD3 [1]: 4.0 NM_031345.1 Rattus norvegicus delta sleep
Emr1 TGFb/TGFB + VitD3 [1]: 5.9 XM_579174.1 PREDICTED: Rattus norvegicus
Fchsd2_predic TGFb/TGFB + VitD3 [1]: 4.9 XM_218965.3 PREDICTED: Rattus norvegicus
Gas7 TGFb/TGFB + VitD3 [1]: 4.9 NM_053484.1 Rattus norvegicus growth arrest
Glipr1_predict TGFb/TGFB + VitD3 [1]: 4.8 XM_576223.1 PREDICTED: Rattus norvegicus GLI
Hod TGFb/TGFB + VitD3 [1]: 5.1 NM_133621.2 Rattus norvegicus homeobox only
LOC304349 TGFb/TGFB + VitD3 [1]: 7.1 XM_221990.3 PREDICTED: Rattus norvegicus
LOC305269 TGFb/TGFB + VitD3 [1]: 4.0 XM_223309.3 PREDICTED: Rattus norvegicus
LOC310190 TGFb/TGFB + VitD3 [1]: 4.8 XM_226886.3 PREDICTED: Rattus norvegicus
LOC312102 TGFb/TGFB + VitD3 [1]: 4.3 XM_231461.3 PREDICTED: Rattus norvegicus
LOC361699 TGFb/TGFB + VitD3 [1]: 3.8 XM_341982.2 PREDICTED: Rattus norvegicus
LOC366205 TGFb/TGFB + VitD3 [1]: 6.6 XM_345441.2 PREDICTED: Rattus norvegicus
LOC366608 TGFb/TGFB + VitD3 [1]: 4.4 XM_345665.2 PREDICTED: Rattus norvegicus
LOC497796 TGFb/TGFB + VitD3 [1]: 5.1 XM_579296.1 PREDICTED: Rattus norvegicus
LOC498741 TGFb/TGFB + VitD3 [1]: 6.1 XM_574019.1 PREDICTED: Rattus norvegicus
LOC498751 TGFb/TGFB + VitD3 [1]: 5.1 XM_574030.1 PREDICTED: Rattus norvegicus
LOC499078 TGFb/TGFB + VitD3 [1]: 4.2 XM_574362.1 PREDICTED: Rattus norvegicus
LOC499100 TGFb/TGFB + VitD3 [1]: 3.9 XM_218456.3 PREDICTED: Rattus norvegicus
LOC499272 TGFb/TGFB + VitD3 [1]: 4.4 XM_579937.1 PREDICTED: Rattus norvegicus
LOC499356 TGFb/TGFB + VitD3 [1]: 11.0 XM_574669.1 PREDICTED: Rattus norvegicus
LOC501570 TGFb/TGFB + VitD3 [1]: 4.6 XM_576974.1 PREDICTED: Rattus norvegicus
LOC502904 TGFb/TGFB + VitD3 [1]: 6.7 XM_578406.1 PREDICTED: Rattus norvegicus
LOC502907 TGFb/TGFB + VitD3 [1]: 9.6 XM_578409.1 PREDICTED: Rattus norvegicus
Ly49si1 TGFb/TGFB + VitD3 [1]: 4.6 XM_579297.1 PREDICTED: Rattus norvegicus
Ly49si2 TGFb/TGFB + VitD3 [1]: 4.6 XM_579298.1 PREDICTED: Rattus norvegicus
Ms4a4a_predi TGFb/TGFB + VitD3 [1]: 17.7 XM_342027.1 PREDICTED: Rattus norvegicus
Ms4a6a_predi TGFb/TGFB + VitD3 [1]: 4.5 XM_215145.3 PREDICTED: Rattus norvegicus
Ms4a6b TGFb/TGFB + VitD3 [1]: 4.2 NM_00100697 Rattus norvegicus membrane-
Ms4a7_predict TGFb/TGFB + VitD3 [1]: 6.2 XM_215200.2 PREDICTED: Rattus norvegicus
Nucb2 TGFb/TGFB + VitD3 [1]: 3.9 NM_021663.2 Rattus norvegicus nucleobindin 2
Oplah TGFb/TGFB + VitD3 [1]: 8.6 NM_053904.1 Rattus norvegicus 5-oxoprolinase
Pcsk1 TGFb/TGFB + VitD3 [1]: 7.4 NM_017091.1 Rattus norvegicus proprotein
Pirb TGFb/TGFB + VitD3 [1]: 5.3 NM_031713.1 Rattus norvegicus paired-Ig-like
Ptprc TGFb/TGFB + VitD3 [1]: 4.2 NM_138507.1 Rattus norvegicus protein tyrosine
Ptpro TGFb/TGFB + VitD3 [1]: 5.0 NM_017336.1 Rattus norvegicus protein tyrosine
RT1-Ba TGFb/TGFB + VitD3 [1]: 4.1 XM_579226.1 PREDICTED: Rattus norvegicus
Sh3kbp1 TGFb/TGFB + VitD3 [1]: 4.4 NM_053360.2 Rattus norvegicus SH3-domain
Slamf9_predic TGFb/TGFB + VitD3 [1]: 4.2 XM_213932.2 PREDICTED: Rattus norvegicus
Stab1_predict TGFb/TGFB + VitD3 [1]: 5.6 XM_214279.3 PREDICTED: Rattus norvegicus
Tmem26_pred TGFb/TGFB + VitD3 [1]: 3.8 XM_228108.3 PREDICTED: Rattus norvegicus
